# Where a name gives a salt, the structure may show the parent alone.
# Legend:
# serotonin 2 receptor = target: T1, serotonin 2 receptor (Rattus norvegicus, UniProt P14842); assay: Binding test on [3H] ketanserin, cerebral cortex receptor fraction; design: species or system SD rats; settings: 0.3 nM [3H] ketanserin, 37° C. 15 min, read-out: 5HT2
# T1 construct: To the receptor fraction of the cerebral cortex were added a test compound and 0.3 nM of [^3H] ketanserin; from tissue; host or cells: rat cerebral cortex membrane fraction
# T1 sequence (P14842 whole entry): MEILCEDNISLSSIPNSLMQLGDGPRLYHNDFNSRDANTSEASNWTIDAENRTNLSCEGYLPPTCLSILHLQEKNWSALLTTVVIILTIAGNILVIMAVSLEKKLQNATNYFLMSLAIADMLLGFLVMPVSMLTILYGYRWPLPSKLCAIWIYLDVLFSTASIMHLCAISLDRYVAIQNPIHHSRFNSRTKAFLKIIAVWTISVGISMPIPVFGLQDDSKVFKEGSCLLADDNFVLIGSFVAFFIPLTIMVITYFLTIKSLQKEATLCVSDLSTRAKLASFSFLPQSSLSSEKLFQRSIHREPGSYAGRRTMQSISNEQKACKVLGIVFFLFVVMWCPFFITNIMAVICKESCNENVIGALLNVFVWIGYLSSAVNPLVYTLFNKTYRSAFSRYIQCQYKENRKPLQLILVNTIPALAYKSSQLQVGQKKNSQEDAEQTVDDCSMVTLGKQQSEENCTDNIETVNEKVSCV
# serotonin 1A receptor = target: T2, serotonin 1A receptor (Rattus norvegicus, UniProt P19327); assay: Binding test on [3H] 8-hydroxy-dipropylaminotetralin, hippocampus receptor fraction; design: species or system SD rats; settings: rat hippocampus receptor fraction, 0.5 nM [3H] 8-OH-DPAT, room temperature 30 min; read-out: 5HT1
# T2 construct: To the receptor fraction of the hippocampus were added a test compound and 0.5 nM of [^3H]; 8-hydroxy-dipropylaminotetralin; from tissue; host or cells: rat hippocampus membrane fraction
# T2 sequence (P19327 1-422): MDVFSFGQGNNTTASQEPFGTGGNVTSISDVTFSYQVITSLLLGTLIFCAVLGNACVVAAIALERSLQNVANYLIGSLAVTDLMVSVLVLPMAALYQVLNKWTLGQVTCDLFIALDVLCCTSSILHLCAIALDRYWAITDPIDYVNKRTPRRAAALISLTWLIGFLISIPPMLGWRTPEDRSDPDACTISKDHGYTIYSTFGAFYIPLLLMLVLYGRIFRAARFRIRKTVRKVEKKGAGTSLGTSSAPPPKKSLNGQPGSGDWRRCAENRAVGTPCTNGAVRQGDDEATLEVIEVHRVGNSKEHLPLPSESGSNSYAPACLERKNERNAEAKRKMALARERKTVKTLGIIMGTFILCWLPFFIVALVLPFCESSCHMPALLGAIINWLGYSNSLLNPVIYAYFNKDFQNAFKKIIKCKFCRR
SMILES,Ki (serotonin 2 receptor),Ki (serotonin 1A receptor)
"CCCC(=O)Nc1ncc(-c2cc3ccccc3c(N3CCN(CC)CC3)n2)cn1 [Example 174, 3-(2-Propylcarbonylaminopyrimidin-5-Yl)-1-(4-Ethylpiperazin-1-Yl)Isoquinoline Hydrochlroide]",7.3 nM,29.1 nM
"CCN1CCN(c2nc(-c3ccc(OCCO)c(Cl)c3)cc3ccsc23)CC1 [Example 437, 7-(4-ethylpiperazin-1-yl)-5-[3-chloro-4-(2-hydroxyethoxy)phenyl]thieno[2,3-c]pyridine]",18.1 nM,30.5 nM
"CCN1CCN(c2nc(-c3ccc([C@@H]4C[C@@H](O)CCO4)cc3)cc3ccsc23)CC1 (relative stereo) [Example 455, 7-(4-ethylpiperazin-1-yl)-5-[4-(trans-4-hydroxytetrahydropyran-2-yl)phenyl]thieno[2,3-c]pyridine dihydrochloride]",40 nM,50.3 nM
"CCN1CCN(c2nc(-c3ccnc(OCCOC)c3)cc3ccccc23)CC1 [Example 407, 1-(4-ethylpiperazin-1-yl)-3-[2-(2-methoxyethoxy)pyridin-4-yl]isoquinoline]",26.1 nM,17.8 nM
"CCN1CCN(c2nc(N3CCN(c4ccccn4)CC3)cc3ccccc23)CC1 [Example 159, 1-(1-ethylpiperazin-4-yl)-3-[1-(2-pyridyl)piperazin-4-yl]isoquinoline]",13.2 nM,0.65 nM
"CCC(O)c1ccc(-c2cc3sccc3c(N3CCN(CC)CC3)n2)cc1 (centres unmarked) [Example 282, 4-(4-ethylpiperazin-1-yl)-6-[4-(1-hydroxypropyl)phenyl]thieno-[3,2-c]pyridine oxalate]",6.46 nM,10.8 nM
"CCN1CCN(c2nc(/C=C(\C)c3ccc(N4CCOCC4)cc3)cc3ccccc23)CC1 [Example 206, 3-{(E)-2-Methyl-2-[4-(4-Morpholinyl)Phenyl]Ethenyl}-1-(4-Ethylpiperazin-1-Yl)Isoquinoline Oxalate]",2.59 nM,77.1 nM
"CCN1CCN(c2nc(-c3ccc(CCCO)cc3)cc3ccoc23)CC1 [Example 299, 7-(1-ethylpiperazin-4-yl)-5-[4-(3-hydroxypropyl)phenyl]furo[2,3-c]pyridine dihydrochloride]",30.1 nM,0.37 nM
"CCN1CCN(c2nc(/C=C/c3ccccc3OCCO)cc3ccccc23)CC1 [Example 194, 1-(1-Ethylpiperazin-4-Yl)-3-[trans-2-(2-Hydroxyethoxyphenyl)Ethenyl]Isoquinoline Oxalate]",33.7 nM,11.2 nM
"CCCS(=O)(=O)c1ccc(-c2cc3ccccc3c(N3CCN(CC)CC3)n2)cc1 [Example 349, 1-(4-ethylpiperazin-1-yl)-3-[4-propylsulfonyl)phenyl]isoquinoline dihydrochloride]",5 nM,3.2 nM
"CCN1CCN(c2nc(-c3ccc(C(O)C4CCCCC4)cc3)cc3ccsc23)CC1 (centres unmarked) [Example 457, 7-(4-Ethylpiperazin-1-yl)-5-[4-(cyclohexylhydroxymethyl)phenyl]thieno[2,3-c]pyridine dihydrochloride]",281 nM,63.3 nM
"CCN1CCN(c2nc(-c3ccc(C(=O)NC4CCCCC4)cc3)cc3ccsc23)CC1 [Example 273, dihydrochloride]",9.11 nM,51.4 nM
"CCN1CCN(c2nc(-c3ccc(NC(C)=O)cc3)cc3ccccc23)CC1 [Example 68, 3-(4-Acetamidephenyl)-1-(4-Ethylpiperazin-1-Yl)Isoquinoline Hydrochloride]",94.1 nM,30.9 nM
"CCN1CCN(c2nc(-c3cnc(CCCOC)s3)cc3ccccc23)CC1 [Example 172, 1-(1-ethylpiperazin-4-yl)-3-[2-(3-methoxypropyl)thiazol-5-yl]isoquinoline oxalate]",36.2 nM,4.7 nM

# Results, then the compound that gave them:
Ki (serotonin 2 receptor),Ki (serotonin 1A receptor),SMILES
1.6 nM,11 nM,"CCN1CCN(c2nc(-c3ccc(C(C)O)cc3)cc3ccccc23)CC1 (centres unmarked) [Example 348, 1-(4-ethylpiperazin-1-yl)-3-[4-(1-hydroxyethyl)phenyl]isoquinoline dihydrochloride]"
0.24 nM,1.1 nM,"CCCNS(=O)(=O)c1ccc(-c2cc3ccccc3c(N3CCN(CC)CC3)n2)cc1 [Example 353, 1-(4-ethylpiperazin-1-yl)-3-[4-(N-propylsulfamoyl)phenyl]isoquinoline dihydrochloride]"
0.61 nM,3.5 nM,"CCN1CCN(c2nc(-c3ccc(S(=O)(=O)NC4CC4)cc3)cc3ccccc23)CC1 [Example 363, 1-(4-ethylpiperazin-1-yl)-3-[4-(N-cyclopropylsulfamoyl)phenyl]isoquinoline dihydrochloride]"
0.54 nM,67.8 nM,"CCN1CCN(c2nc(-c3ccc(OCC(C)(C)O)cc3)cc3ccsc23)CC1 [Example 260, 7-(1-Ethylpiperazin-4-yl)-5-[4-(2-hydroxy-2-methylpropoxy)phenyl]thieno[2,3-c]pyridine dihydrochloride]"
2.5 nM,28.2 nM,"CCN1CCN(c2nc(-c3ccc(OCCO)c(F)c3)cc3ccccc23)CC1 [Example 369, 1-(4-ethylpiperazin-1-yl)-3-[3-fluoro-4-(2-hydroxyethoxy)phenyl]isoquinoline dihydrochloride]"
12.7 nM,9.15 nM,"CCN1CCN(c2nc(-c3ccc(OCCO)cc3)cc3ccoc23)CC1 [Example 301, 7-(1-Ethylpiperazin-4-yl)-5-[4-(2-hydroxyethoxy)phenyl]furo[2,3-c]pyridine oxalate]"
101 nM,109 nM,"CCN1CCN(c2nc(C(O)c3ccc(OC)cc3)cc3ccccc23)CC1 (stereo not drawn) [Example 104, 3-[α-Hydroxy-(4-methoxybenzyl)]-1-(4-ethylpiperazin-1-yl)isoquinoline Oxalate]"
7.1 nM,133 nM,"CCN1CCN(c2nc(-c3ccc(OC4CCCCC4O)cc3)cc3ccccc23)CC1 (centres unmarked) [Example 426, 1-(4-ethylpiperazin-1-yl)-3-[4-(2-hydroxycyclohexyloxy)phenyl]isoquinoline Hydrochloride]"
18.9 nM,214 nM,"CCN1CCN(c2nc(-c3ccc(OC(F)(F)F)cc3)cc3ccccc23)CC1 [Example 339, 1-(4-ethylpiperazin-1-yl)-3-(4-trifluoromethoxyphenyl)isoquinoline dihydrochloride]"
12.4 nM,155 nM,"CCN1CCN(c2nc(-c3ccc(C4=CCOCC4)s3)cc3ccccc23)CC1 [Example 176, 3-[2-(5,6-Dihydro-2H-Pyran-4-Yl)Thiophen-5-Yl]-1-[4-Ethylpiperazin-1-Yl)Isoquinoline Hydrochloride]"
132 nM,129 nM,"CCN1CCN(c2nc(C(C)c3ccc(OC)cc3)cc3ccccc23)CC1 (stereo not drawn) [Example 102, 3-[α-Methyl-(4-methoxybenzyl)]-1-(4-ethylpiperazin-1-yl)isoquinoline Oxalate]"
0.7 nM,21.5 nM,"CCN1CCN(c2nc(-c3ccc(CCC(C)(C)O)cc3)cc3ccccc23)CC1 [Example 388, 1-(4-Ethylpiperazin-1-yl)-3-[4-(3-Hydroxy-3-Methylbutyl)Phenyl]Isoquinoline Dihydrochloride]"
1.6 nM,1.1 nM,"CCN1CCN(c2nc(-c3ccc(CNS(=O)(=O)CC)c(Cl)c3)cc3ccccc23)CC1 [Example 91, 3-(3-Chloro-4-ethylsulfonylaminomethylphenyl)-1-(4-ethylpiperazin-1-yl)isoquinoline Hydrochloride]"
12.1 nM,13.9 nM,"CCN1CCN(c2nc(-c3ccc4c(c3)OCCO4)cc3ccccc23)CC1 [Example 332, 1-(4-ethylpiperazin-1-yl)-3-(3,4-ethylenedioxyphenyl)isoquinoline dihydrochloride]"
1.11 nM,129 nM,"CCN1CCN(c2nc(-c3ccc(OCCO)cc3)cc3cccc(F)c23)CC1 [Example 234, 1-(1-ethylpiperazin-4-yl)-8-fluoro-3-[4-(2-hydroxyethoxy)phenyl]isoquinoline dihydrochloride]"
6.7 nM,13 nM,"CCS(=O)(=O)NCc1ccc(-c2cc3ccccc3c(N3CCN(CCO)CC3)n2)cc1 [Example 243, 3-(4-ethylsulfonylaminomethylphenyl)-1-[4-(2-hydroxyethyl)piperazin-1-yl]isoquinoline Hydrochloride]"
2.35 nM,3.28 nM,"CCN1CCN(c2nc(/C=C/c3ccccn3)cc3ccccc23)CC1 [Example 209, 1-(1-Ethylpiperazin-4-Yl)-3-[Trans-2-(2-Pyridyl)Ethenyl]Isoquinoline Trihydrochloride]"
3.4 nM,7.4 nM,"CCN1CCN(c2nc(-c3ccc(C(C)CCO)cc3)cc3ccccc23)CC1 (centres unmarked) [Example 383, 1-(4-Ethylpiperazin-1-yl)-3-[4-(3-Hydroxy-1-Methylpropyl)Phenyl]Isoquinoline Oxalate]"
9.1 nM,32 nM,"CCN1CCN(c2nc(-c3cc(F)c(OCCOC)c(F)c3)cc3ccccc23)CC1 [Example 368, 1-(4-ethylpiperazin-1-yl)-3-(3,5-difluoro-4-methoxyethoxyphenyl)isoquinoline dihydrochloride]"
95.2 nM,42.7 nM,"CCN1CCN(c2nc(Sc3ccccn3)cc3ccccc23)CC1 [Example 378, 1-(4-Ethylpiperazin-1-yl)-3-(2-Pyridylthio)Isoquinoline Oxalate]"

# Source: patent US6875761B2 (Eisai Co., Ltd., priority 1997, dated 2005)
